Consider eleven compounds from publication PMC4291348, “A Continuous Enzyme-Coupled Assay for Triphosphohydrolase Activity of HIV-1 Restriction Factor SAMHD1” (Antimicrobial Agents and Chemotherapy, 2014).

SMILES strings stand for the structures. Several values for one entry are separate records, joined by “and”; a condition that tells them apart may be missing. Identical values can stand only once. Entries after “also recorded” stand apart in the source; their conditions may differ.

For assay [1], the target named is T1, SAMHD1 (residues 115 to 626) (Homo sapiens, UniProt Q9Y3Z3).
T1 construct: The catalytic domain of SAMHD1 (residues 115 to 626) was expressed and purified as previously described; made in house
Nature of the assay: Continuous enzyme-coupled (Ppx1 / MDCC-PBP) real-time assay of SAMHD1 triphosphohydrolase activity. The class given is biochemical. The conditions noted are these: for KA, apparent dissociation constant for activator binding (activator concentration for half-maximal hydrolysis of TTP substrate): TTP substrate 1 mM, activator varied; for Inhibitory effect on steady-state TTP hydrolysis by GTP-activated SAMHD1 (in words): increasing amounts of compound. Here is the method: The steady-state kinetics of SAMHD1 were determined by a coupled-enzyme assay using Ppx1 and a fluorescent phosphate biosensor, MDCC-PBP. The reactions were set up in 20-μl volumes in 384-well low-protein-binding microplates (Corning, USA), and the time-dependent fluorescence signal was measured using a Tecan Saffire^2 multiwell plate reader (Männedorf, Switzerland). Solutions containing SAMHD1 (residues 115 to 626), Ppx1, MDCC-PBP, an activator, and an inhibitor (if present) were incubated for 5 min at 25°C before the reaction was initiated by the addition of the substrate. The final concentrations were 100 nM SAMHD1, 10 nM Ppx1, and 40 μM MDCC-PBP. Depending on the experiment, the concentration of the substrate, the activator, or the inhibitor varied while the substrate and/or the activator was held constant at 1 mM and 0.2 mM, respectively. The fluorescence intensity was recorded at 430 nm for excitation and 465 nm for emission wavelengths, with a 7-nm slit width, at 8- to 10-s time intervals over a period of 10 to 30 min. The standard curves were obtained by incubating 40 μM MDCC-PBP with different concentrations of phosphate (Pi) and measuring the fluorescence, as discussed above. The fluorescence response was linear and in the range of 0 to 20 μM Pi.
The steady-state rates were obtained from the time courses of Pi formation by linear regression of the data points in the linear phase of the reaction. Rates were divided by the SAMHD1 concentration and were plotted versus the activator, substrate, or inhibitor concentration. Apparent dissociation constants for the activator (KA) or the substrate binding (KS) and the catalytic constant (kcat) were determined by nonlinear least-squares fitting using either a hyperbolic or a Hill-function equation in the software package GraFit 7.0.3 (Erithacus Software, United Kingdom) ([22]). […] Data from the three different experiments were analyzed by a least-squares fit using the equation for competitive inhibition. The fits for the three data sets yielded invariant values for the inhibition constants (Ki), supporting a competitive mode of inhibition. All measurements were performed in triplicate in the reaction buffer.

The subject of assay [2] is T2, SAMHD1.
T2 construct: The catalytic domain of SAMHD1 (residues 115 to 626) was expressed and purified as previously described; made in house
As to the kind of experiment: Malachite green endpoint Ppx1-coupled assay of SAMHD1 (compound screening). In kind it is biochemical, human. The conditions noted are these: for SAMHD1 activation (TTP hydrolysis relative to control GTP): 200 μM compound as activator, 1 mM TTP substrate; for SAMHD1 inhibition (TTP hydrolysis after inclusion of test compound): 200 μM compound, 200 μM GTP, 1 mM TTP; for Hydrolysis by GTP-activated SAMHD1: 1 mM compound plus 200 μM GTP, relative to control TTP. As for the experimental part:
The substrates and compounds were obtained from Jena Biosciences (Jena, Germany) or Thermo Fisher Scientific (Massachusetts, USA). The phosphate concentration was determined using the recommended protocol supplied with the PiColorLock gold phosphate detection system from Innova Biosciences (Cambridge, United Kingdom). Time-course assays were conducted in low-protein-binding 96-well black plates (Corning, USA). The absorbance was measured using a Tecan Safire^2 (Männedorf, Switzerland) plate reader at 630 nm in a fixed-wavelength mode. All the assays were prepared as master mixes immediately before use in a reaction buffer containing 20 mM Tris-HCl, 150 mM NaCl, 5 mM MgCl2, and 2 mM TCEP at pH 7.5.
To determine the triphosphohydrolase activity of SAMHD1, 1 mM substrate and 200 μM allosteric activator were incubated with 5 μM SAMHD1 and 500 nM Ppx1. Fixed-volume samples were removed at predetermined time intervals, and activity was stopped by the addition of 0.25 vol of gold mix (PiColorLock gold) through acidification to a pH of approximately 1.0. After 5 min of incubation at 25°C, 0.1 volume of stabilizer solution (PiColorLock gold) was added, and the mixtures were incubated for a further 30 min at 25°C. The final absorbance was measured as 630 nm by scanning 10 times and averaging data. Each assay was completed in triplicate. The triplicated readings were averaged and normalized by subtracting the average zero-standard optical density. The averaged optical density reading was then compared to a known standard of monophosphate to calculate the concentration of phosphate released.
To determine whether a compound was both a substrate and an allosteric activator of SAMHD1, only 1 mM of the compound of interest was included in the reaction. To test if a compound was a substrate for activated SAMHD1, 1 mM of the compound plus 200 μM GTP was included.

Assay [3] has as its system T2, SAMHD1. The following applies: cited from earlier work; for Hydrolytic activity of SAMHD1 on the compound: in vitro.
In the next assay the target is T3, Ppx1 (Saccharomyces cerevisiae, UniProt P38698).
T3 construct: StrepII-tag (N); made in house; host or cells: Escherichia coli BL21(DE3)
Nature of the assay: Ppx1 triphosphate hydrolysis kinetics and specificity controls. The conditions noted are these: recombinant Ppx1 0.3 nM, 25°C, MDCC-PBP. The class given is biochemical. As for the experimental part: Sample controls were used to check for potential Ppx1 activity on the compounds and the reagents. In these assays, the 200 μM compound was incubated in a reaction buffer at 25°C for 30 s with 500 nM Ppx1, either with or without 200 μM triphosphate. The Ppx1 activity was determined by measuring phosphate release with malachite green detection, as described for the coupled assay above.
The initial control experiments were undertaken to assess the suitability of Ppx1 as a coupled enzyme for the assay. The Km for Ppx1 hydrolysis of a polyphosphate ranged from 0.004 to 140 μM ([23]) for P250 to P3 substrates, with kcat values between 180 and 1,500 s^−1 at 37°C, depending on the preparation ([23][–][25]). […] Over the triphosphate substrate concentration range employed in the assays, this rate is substantially higher than that of SAMHD1 dNTP hydrolysis (kcat, ∼1.3 s^−1) and so is suitable as the coupling enzyme in an assay. […]
FIG 2 Kinetics and specificity of Ppx1 hydrolysis. (A) Steady-state kinetics of Ppx1-catalyzed triphosphate cleavage to Pi and PPi were measured using 40 μM MDCC-PBP, 0.3 nM Ppx1, and various concentrations of the triphosphate. The error bars represent the SEM of three independent measurements recorded at each substrate concentration. […] (B) Specificity of Ppx1 hydrolysis was measured using the malachite green endpoint assay. […]

The next assay deals with HIV-1. The arrangement: method as in PMID 24867973, PMID 23744077, PMID 24913159. The following applies: monocyte-derived macrophages and activated CD4+ T cells; cited from earlier work.

T1 sequence (Q9Y3Z3 115-626): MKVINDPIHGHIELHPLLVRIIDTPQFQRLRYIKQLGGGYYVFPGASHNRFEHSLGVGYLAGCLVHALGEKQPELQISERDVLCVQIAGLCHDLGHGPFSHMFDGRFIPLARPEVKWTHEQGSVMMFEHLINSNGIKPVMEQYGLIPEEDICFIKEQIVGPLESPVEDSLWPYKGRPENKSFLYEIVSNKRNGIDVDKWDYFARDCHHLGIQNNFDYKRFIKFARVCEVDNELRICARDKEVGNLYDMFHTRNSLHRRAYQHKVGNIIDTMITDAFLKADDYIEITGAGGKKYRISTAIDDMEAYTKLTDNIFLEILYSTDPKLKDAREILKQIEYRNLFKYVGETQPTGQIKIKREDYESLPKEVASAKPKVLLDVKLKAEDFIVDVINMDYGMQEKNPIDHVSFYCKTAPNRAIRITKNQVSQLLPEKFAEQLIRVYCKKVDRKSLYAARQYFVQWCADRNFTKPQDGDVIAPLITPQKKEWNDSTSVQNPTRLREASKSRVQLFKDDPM
T3 sequence (P38698 whole entry): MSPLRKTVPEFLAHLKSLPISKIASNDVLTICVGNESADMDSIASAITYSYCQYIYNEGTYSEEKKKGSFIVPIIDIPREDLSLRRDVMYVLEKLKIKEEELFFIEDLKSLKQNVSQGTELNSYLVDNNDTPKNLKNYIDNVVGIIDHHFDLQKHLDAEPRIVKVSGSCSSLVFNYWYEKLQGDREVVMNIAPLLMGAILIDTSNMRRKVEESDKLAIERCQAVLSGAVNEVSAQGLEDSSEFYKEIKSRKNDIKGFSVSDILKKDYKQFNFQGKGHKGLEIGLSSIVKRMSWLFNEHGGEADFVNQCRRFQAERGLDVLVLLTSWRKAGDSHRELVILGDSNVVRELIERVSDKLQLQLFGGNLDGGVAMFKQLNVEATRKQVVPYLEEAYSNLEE

Regarding `Nc1nc2c(ncn2COC(CO)COP(=O)(O)OP(=O)(O)OP(=O)(O)O)c(=O)[nH]1` (stereo not drawn) [Ganciclovir-TP, ganciclovir triphosphate], the “Ki, inhibition constant” value in assay [1] (GTP activator, TTP substrate (1, 0.3, 0.1 mM), competitive inhibition model) is recorded as “No inhibition”. The “KA, apparent dissociation constant for activator binding (activator concentration for half-maximal hydrolysis of TTP substrate)” value (“KA, apparent dissociation constant” below) in assay [1] (25°C) is given as “No activation”. In assay [1] (25°C, listed as ganciclovir-TP), the “KA, apparent dissociation constant” value is recorded as “unable to activate SAMHD1”. Also, the “Inhibitory effect on steady-state TTP hydrolysis by GTP-activated SAMHD1 (in words)” value in assay [1] (GTP activator, TTP substrate) is listed as “no effect”. Further, in the assay with SAMHD1 [2], the “SAMHD1 activation (TTP hydrolysis relative to control GTP)” value is “no activation”, the “SAMHD1 inhibition (TTP hydrolysis after inclusion of test compound)” value (“SAMHD1 inhibition” below) is “not significantly inhibited” and the “Hydrolysis by GTP-activated SAMHD1” value is reported as “refractory to hydrolysis”.
The EC50 is the midpoint of the concentration-response curve. On to `Nc1nc2c(ncn2COCCOP(=O)(O)OP(=O)(O)OP(=O)(O)O)c(=O)[nH]1` [Acyclovir-TP, acyclovir triphosphate], for which the EC50 in assay [1] was 15.6 ± 2.2 µM. Besides, in the assay with SAMHD1 [2], the “SAMHD1 inhibition” value is given as “not significantly inhibited” and the “Hydrolysis by GTP-activated SAMHD1” value is listed as “refractory to hydrolysis; also recorded: not a substrate”.
For the compound `Cc1cn([C@H]2C=C[C@@H](COP(=O)(O)OP(=O)(O)OP(=O)(O)O)O2)c(=O)[nH]c1=O` [d4T-TP, 2′,3′-didehydro-2′,3′-dideoxythymidine triphosphate], the “Hydrolytic activity of SAMHD1 on the compound” value (from here on “Hydrolytic activity of SAMHD1”) with SAMHD1 [3] is on record as “little or no hydrolytic activity”.
`Cc1cn([C@H]2C[C@H](O)[C@@H](COP(=O)(O)OP(=O)(O)OP(=O)(O)O)O2)c(=O)[nH]c1=O` [TTP]: in assay [1] (Acyclovir-TP as activator, TTP substrate), the “nS, Hill coefficient for substrate binding” value is reported as 3.0 ± 0.1. Moreover, the “KS, apparent dissociation constant for substrate binding” value turned out to be 353 ± 16 µM in assay [1] (Acyclovir-TP as activator, TTP substrate, Hill-modified model) and 96.3 ± 1.7 µM in assay [1] (GTP activator 0.2 mM, 25°C).
Regarding `Nc1ccn([C@H]2CS[C@@H](COP(=O)(O)OP(=O)(O)OP(=O)(O)O)O2)c(=O)n1` [3TC-TP, 2′,3′-dideoxy-3′-thiacytidine triphosphate], the “Hydrolytic activity of SAMHD1” value with SAMHD1 [3] is reported as “little or no hydrolytic activity”.
Turning to `Nc1nc2c(ncn2[C@@H]2O[C@H](COP(=O)(O)OP(=O)(O)OP(=O)(O)O)[C@@H](O)[C@H]2O)c(=O)[nH]1` [GTP], the “KA, apparent dissociation constant” value in assay [1] (25°C) was 32.0 ± 4.2 µM. Further, the “Activation of SAMHD1” value in the assay with SAMHD1 [3] is “activates SAMHD1 as effectively as dGTP”.
What is called Ki is a measure of affinity in units of concentration, obtained from inhibition or displacement. For `Nc1ncnc2c1ncn2[C@H]1C[C@H](O)[C@@H](COP(=O)(O)NP(=O)(O)OP(=O)(O)O)O1` [dApNHpp], the “Inhibitory effect on steady-state TTP hydrolysis by GTP-activated SAMHD1 (in words)” value in assay [1] (GTP activator, TTP substrate) is recorded as “potent inhibition; also recorded: strong competitive inhibitor”. In addition, in assay [1] (read-out: Ki, inhibition constant), the Ki came to 1.13 ± 0.07 µM. In the assay on SAMHD1 [2], the “SAMHD1 activation (TTP hydrolysis relative to control GTP)” value was “no activation”, the “SAMHD1 inhibition” value was “substantial reduction in TTP hydrolysis to near background levels” and the “Hydrolysis by GTP-activated SAMHD1” value was “refractory to hydrolysis”.
Regarding `Cc1cn([C@H]2C[C@H](N=[N+]=[N-])[C@@H](CO[P@](=O)(O)O[P@](=O)(O)OP(=O)(O)O)O2)c(=O)[nH]c1=O` [AZT-TP, azidothymidine triphosphate], in the assay on SAMHD1 [3], the “Hydrolytic activity of SAMHD1” value is “little or no hydrolytic activity”.
For the compound `O=P(O)(O)OP(=O)(O)OP(=O)(O)O` [triphosphate], on Ppx1, the “kcat of Ppx1 triphosphate hydrolysis” value was 338 s⁻¹ and 338 ± 31 s⁻¹.
With `Cc1cn([C@H]2C[C@H](N=[N+]=[N-])[C@@H](CO)O2)c(=O)[nH]c1=O` [AZT], the “Change in efficacy against HIV-1 infection on downregulation of SAMHD1” value in the assay on HIV-1 is recorded as “large decrease in the efficacy”.
Consider `Nc1nc(Cl)nc2c1ncn2[C@@H]1O[C@H](COP(=O)(O)OP(=O)(O)OP(=O)(O)O)[C@@H](O)[C@@H]1F` [Clofarabine-TP, clofarabine triphosphate], for which, in assay [1] (GTP activator 0.2 mM), the “nS, Hill coefficient for substrate binding” value came to 2.8 ± 0.1. Further, in assay [1] (GTP activator 0.2 mM, 25°C), the “KS, apparent dissociation constant for substrate binding” value was 67.6 ± 8.9 µM. For the same compound, in the assay on SAMHD1 [2], the “SAMHD1 activation (TTP hydrolysis relative to control GTP)” value is recorded as “no activation”, the “SAMHD1 inhibition” value is on record as “diminished only slightly” and the “Hydrolysis by GTP-activated SAMHD1” value is recorded as “hydrolyzed at a rate comparable to that of the control TTP; also recorded: hydrolyzed by SAMHD1 at a rate comparable to that of natural dNTP substrates”.
